Laboratory results published in PMC10650850, “Discovery, Structure–Activity Relationship and In Vitro Anticancer Activity of Small-Molecule Inhibitors of the Protein–Protein Interactions between AF9/ENL and AF4 or DOT1L” (Cancers, 2023).
Where a name gives a salt, the structure may show the parent alone.

Columns and labels:
AF9-DOT1L interaction = target: T1, AF9-DOT1L interaction (Homo sapiens, UniProt P42568); assay: AlphaLisa assay, AF9-DOT1L interaction; format: binding; conditions: for IC50: MBP-protein 5 nM, biotinylated peptide 40 nM, 3 independent experiments with standard deviation, read-out: IC50 (μM) against the AF9-DOT1L interaction; for inhibition at 5 µM: compound at 5 μM, read-out: % Inhibition at 5 μM against the AF9-DOT1L interaction
T1 construct: human AF9 AHD domain (475–568); made in house; host or cells: E. coli BL21(DE3)
T1 sequence (P42568 475-568): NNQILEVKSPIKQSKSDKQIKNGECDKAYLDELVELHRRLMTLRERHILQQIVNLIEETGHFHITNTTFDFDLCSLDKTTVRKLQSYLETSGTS
From the text: An AlphaLisa assay we previously developed was used for compound screening for inhibitors of the AF9-DOT1L interaction. The PPI takes the DOT1L-peptide coated donor beads and AF9 AHD coated acceptor beads together. The donor beads are illuminated with a laser beam (680 nm) to generate singlet oxygen radicals, which activate the adjacent acceptor beads to produce luminescence at 615 nm. When a compound can disrupt such PPI and separate the donor and acceptor beads, the highly unstable radicals are rapidly quenched by water without generating luminescence.
(§1) The cDNA for the human AF9 AHD domain (475–568) and ENL AHD domain (489–559) was synthesized (by Genscript, Piscataway, NJ, USA) and inserted into the pMAL c5X expression plasmid. The DOT1L peptide (Biotin-AHX-[…]) and AF4 peptide (Biotin-AHX-[…]) for the Alpha assay were purchased from Genscript.
(§2) Alpha assays were developed in our previous publication, using a Perkin-Elmer AlphaLisa anti-MBP kit, which contains streptavidin donor beads and anti-MBP acceptor beads. Briefly, the assay was performed using a MBP-protein (5 nM), a biotinylated peptide (40 nM), and increasing concentrations of a compound in 25 µL buffer (PBS with 0.5% BSA, pH 7.5) in 384-well plates according to the manufacturer’s protocol and measured with a Tecan SPARK microplate reader. Data were imported into Prism (version 5.0), and IC50 values from 3 independent experiments with standard deviation were obtained by using a standard dose-response curve fitting.

MV4;11 = assay: Antiproliferation assay (XTT), MV4;11; format: cell-based; conditions: Homo sapiens, MV4-11, 168 h, 7 days incubation, read-out: Antitumor activity EC50, MV4;11;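 also: EC50 values in Micromolar not Nanomolar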
Method: (§3) The antitumor activity of selected compounds was evaluated against the proliferation of a panel of MLL-r leukemia and other cancer cells. MV4;11 and Molm-13 leukemia cells contain MLL-AF4 and MLL-AF9 fusion oncogenes, respectively. NB4 and HL60 are AML cells without MLL translocation. Hela (cervical cancer) is a solid tumor cell line. […] The anti-proliferation activity of these compounds against other AML cells (i.e., NB4 and HL60) might be due to their inhibition of SEC-mediated gene expression (e.g., Myc), as observed in our previous studies.
(§4) Proliferation inhibition assays were performed using an XTT assay kit (Biotium, Fremont, CA, USA) following our previous methods. The antiproliferation EC50 values were determined using Prism 5 and the reported results were the mean values of at least three independent experiments. The incubation time for all compounds was 7 days.

NB4 = assay: Antiproliferation assay (XTT), NB4; format: cell-based; conditions: Homo sapiens, NB-4, 168 h, 7 days incubation, read-out: Antitumor activity EC50, NB4;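 also: EC50 values in Micromolar not Nanomolar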
Method: as §3, §4

Hela = assay: Antiproliferation assay (XTT), Hela; format: cell-based; conditions: 7 days incubation; for EC50: Homo sapiens, HeLa, 168 h, read-out: Antitumor activity EC50, Hela
Method: as §3, §4

HL60 = assay: Antiproliferation assay (XTT), HL60; format: cell-based; conditions: Homo sapiens, HL-60, 168 h, 7 days incubation, read-out: Antitumor activity EC50, HL60;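 also: EC50 values in Micromolar not Nanomolar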
Method: as §3, §4

[1] = system: panel of MLL-r leukemia and other cancer cells; assay: Antiproliferation assay (XTT), panel of MLL-r leukemia and other cancer cells; format: cell-based; conditions: 7 days; for Inhibition of tumor cell proliferation (in words): MV4;11, Molm-13, NB4, HL60 and Hela cells; for EC50: 168 h, MV4;11, Molm-13, NB4 and HL60 cells, read-out: Antitumor activity EC50, span over MLL-r leukemia and AML cells
Method: as §3, §4

Molm13 = assay: Antiproliferation assay (XTT), Molm-13; format: cell-based; conditions: Homo sapiens, MOLM-13, 168 h, 7 days incubation, read-out: Antitumor activity EC50, Molm13;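 also: EC50 values in Micromolar not Nanomolar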
Method: as §3, §4

ENL-AF4 = target: T2, ENL-AF4 (Homo sapiens, UniProt Q03111); assay: AlphaLisa assay, ENL-AF4 interaction; format: binding; conditions: ENL AHD, AF4 peptide
T2 construct: ENL AHD domain (489–559); made in house; host or cells: E. coli BL21(DE3)
T2 sequence (Q03111 489-559): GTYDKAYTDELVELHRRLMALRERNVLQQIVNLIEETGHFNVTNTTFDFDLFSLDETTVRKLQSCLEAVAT
Method: (§5) Transcription cofactor AF4, which is the most frequent (~35%) fusion protein in MLL1-r leukemia, is another binding partner of AF9/ENL [35, 36, 37]. The AF9/ENL-AF4 interactions are essential for the formation of SEC, which causes aberrant gene expression in MLL-r leukemia and other AMLs. Using our previously developed AlphaLisa assays, selected compounds were tested for their ability to inhibit the PPIs between AF9 or ENL and AF4.
as §1, §2

AF9-AF4 = target: T3, AF9-AF4 (Homo sapiens, UniProt P42568); assay: AlphaLisa assay, AF9-AF4 interaction; format: binding; conditions: AF9 AHD, AF4 peptide
T3 construct: human AF9 AHD domain (475–568); made in house; host or cells: E. coli BL21(DE3)
T3 sequence (P42568 475-568): T1 sequence (P42568 475-568)
Method: as §5, §1, §2

IC50 (AF9-DOT1L interaction) | EC50 (MV4;11) | EC50 (Hela) | EC50 (HL60) | EC50 (Molm13) | inhibition at 5 µM (AF9-DOT1L interaction) | Structure (SMILES) | EC50 (NB4) | also measured
> 30 µM | ~50 µM | > 50 µM | > 50 µM | > 50 µM | – | Cl.NCc1ccc(-c2ccc3cc(C(=O)NCC4CCNCC4)oc3c2)cc1 [Compound 72, 6-(4-(Aminomethyl)phenyl)-N-(piperidin-4-ylmethyl)-benzofuran-2-carboxamide hydrochloride] | > 50 µM | Inhibition of tumor cell proliferation (in words) [1]: None of these three compounds inhibited tumor cell proliferation
5.3 ± 0.1 µM | 8.7 ± 0.9 µM | 50 µM | 26 ± 2.6 µM | 9.4 ± 0.8 µM | – | O=C(NCC1CCNCC1)c1cc2ccc(-c3ccc(N4CCCC4)cc3)cc2s1 [Compound 25, 6-(4-(Pyrrolindin-1-yl)phenyl)-N-(piperidin-4-ylmethyl)-benzo[b]thiophene-2-carboxamide hydrochloride] | 10 ± 0.5 µM | IC50 (ENL-AF4): 7.9 ± 1.5 µM; IC50 (AF9-AF4): 7.7 ± 0.9 µM; EC50 [1]: 8.7 to 26 µM
4.5 ± 0.01 µM | 33 ± 2.8 µM | > 50 µM | 50 µM | 29 ± 2.5 µM | – | O=C(NCC1CCNCC1)c1c[nH]c2cc(-c3ccc(N4CCCCC4)cc3)ccc12 [Compound 2, 6-(4-(Piperidin-1-yl)phenyl)-N-(piperidin-4-ylmethyl)-1H-indole-3-carboxamide hydrochloride] | 32 ± 2 µM | –
3.6 ± 0.3 µM | 22 ± 2 µM | > 50 µM | 50 µM | 10 ± 1.6 µM | – | O=C(NCC1CCNCC1)c1cc2cc(-c3ccc(N4CCCCC4)cc3)ccc2[nH]1 [Compound 15] | > 50 µM | –
2.9 ± 0.1 µM | 26 ± 1.8 µM | > 50 µM | 50 µM | 50 µM | – | O=C(NCC1CCNCC1)c1c[nH]c2cc(-c3ccc(N4CCCC4)cc3)ccc12 [Compound 12, 6-(4-(Pyrrolidin-1-yl)phenyl)-N-(piperidin-4-ylmethyl)-1H-indole-3-carboxamide hydrochloride] | 50 µM | –
7.2 ± 0.4 µM | 21 ± 1.2 µM | 50 µM | 9.7 ± 1.2 µM | 13 ± 1.7 µM | – | Cl.O=C(NCC1CCNCC1)c1coc2cc(-c3ccc(N4CCCCC4)cc3)ccc12 [Compound 57, 6-(4-(Piperidin-1-yl)phenyl)-N-(piperidin-4-ylmethyl)-benzofuran-3-carboxamide hydrochloride] | 11 ± 0.4 µM | Antitumor activity EC50, Hela (Hela): did not affect the growth of Hela cells; EC50 [1]: 9.7 to 21 µM
2.7 ± 0.2 µM | – | – | – | – | – | O=C(NCC1CCNCC1)c1cc2cc(-c3ccc(N4CCCC4)cc3)ccc2[nH]1 [Compound 16] | – | IC50 (ENL-AF4): 1.9 ± 0.3 µM; IC50 (AF9-AF4): 1.9 ± 0.1 µM
– | – | – | – | – | 23% | N#Cc1ccc(-c2ccc3sc(C(=O)NCC4CCNCC4)cc3c2)cc1 [Compound 53, 5-(4-Cyanophenyl)-N-(piperidin-4-ylmethyl)-benzo[b]thiophene-2-carboxamide hydrochloride] | – | –
– | – | – | – | – | 14% | O=C(NCC1CCNCC1)c1cc2ccc(-c3ccc(OC(F)(F)F)cc3)cc2s1 [Compound 44, 6-(4-Trifluoromethoxylphenyl)-N-(piperidin-4-ylmethyl)-benzo[b]thiophene-2-carboxamide hydrochloride] | – | –
– | – | – | – | – | 23% | O=C(NCC1CCNCC1)c1cc2ccc(Nc3ccc(OC(F)(F)F)cc3)cc2o1 [Compound 75, 6-((4-Trifuluoromethoxyl)phenyl)amino)-N-(piperidin-4-ylmethyl)-benzofuran-2-carboxamide hydrochloride] | – | –
– | – | – | – | – | 33% | O=C(NCC1CCNCC1)c1cc2ccc(-c3ccc4c(c3)OCCO4)cc2o1 [Compound 69, 6-(2,3-Dihydrobenzo[b][1,4]dioxin-6-yl)-N-(piperidin-4-ylmethyl)-benzofuran-2-carboxamide hydrochloride] | – | –
– | – | – | – | – | 0% | O=C(NCC1CCNCC1)c1cc2cc(-c3ccc(C(=O)N4CCCC4)cc3)ccc2s1 [Compound 52] | – | –
> 30 µM | > 50 µM | > 50 µM | > 50 µM | > 50 µM | – | O=C(NCC1CCNCC1)c1cc2cc(-c3cn[nH]c3)ccc2[nH]1 [Compound 22] | > 50 µM | IC50 (ENL-AF4): > 50 µM; IC50 ENL-AF4 (ENL-AF4): did not inhibit; IC50 (AF9-AF4): > 50 µM; IC50 AF9-AF4 (AF9-AF4): did not inhibit; Inhibition of tumor cell proliferation (in words) [1]: None of these three compounds inhibited tumor cell proliferation
